Test results reported in patent publication US20220257775A1 (GLYCOMIMETICS, INC., priority 2019, published 2022).

Each compound was assayed against T1, recombinant human E-selectin/CD63E Fc Chimera (Homo sapiens, UniProt P16581) (assay: E-Selectin Activity - Analysis by SPR). Conditions: Biacore X100, E-selectin captured on anti-human IgG (Fc) chip.
T1 construct: Fc (human IgG Fc fusion partner); purchased R & D systems
Assay type: binding
Protocol: Surface Plasmon Resonance (SPR) measurements were performed on a Biacore X100 instrument (GE Healthcare). A CM5 sensor chip (GE Healthcare) was used for the interaction between E-selectin and GMI compound. Anti-human IgG (Fc) antibody (GE Healthcare) was immobilized onto the chip by amine coupling according to the manufacturer's instructions. In brief, after a 7-min injection (flow rate of 5 μl/min) of 1:1 mixture of N-ethyl-N′-(3-dimethylaminopropyl) carbodiimide hydrochloride and N-hydroxysuccinimide, anti-human IgG (Fc) antibody (25 μg/ml in 10 mM sodium acetate buffer, pH 5.0) was injected using a 6-min injection at 5 μl/min. Remaining activated groups were blocked by injecting 1 M ethanolamine/HCl, pH 8.5. The recombinant human E-selectin/CD63E Fc Chimera (50 μg/ml) (R & D systems) was injected into the experimental cell until 6000-7000 RU was captured onto the antibody surface. No recombinant human E-selectin/CD63E was injected into the control cell. Increasing concentrations of GMI compound samples were injected at 30 μl/min into both flow cells and all sensorgrams were recorded against the control. Regeneration of the anti-human IgG (Fc) surface was achieved by injecting 3M magnesium chloride, followed by 50 mM sodium hydroxide. Data were analyzed using Biacore X100 evaluation/BIA evaluation 4.1.1 software (GE Healthcare) and Graphad prism 6 software.

T1 sequence (P16581 with tags, fused parts or gaps limits assumed): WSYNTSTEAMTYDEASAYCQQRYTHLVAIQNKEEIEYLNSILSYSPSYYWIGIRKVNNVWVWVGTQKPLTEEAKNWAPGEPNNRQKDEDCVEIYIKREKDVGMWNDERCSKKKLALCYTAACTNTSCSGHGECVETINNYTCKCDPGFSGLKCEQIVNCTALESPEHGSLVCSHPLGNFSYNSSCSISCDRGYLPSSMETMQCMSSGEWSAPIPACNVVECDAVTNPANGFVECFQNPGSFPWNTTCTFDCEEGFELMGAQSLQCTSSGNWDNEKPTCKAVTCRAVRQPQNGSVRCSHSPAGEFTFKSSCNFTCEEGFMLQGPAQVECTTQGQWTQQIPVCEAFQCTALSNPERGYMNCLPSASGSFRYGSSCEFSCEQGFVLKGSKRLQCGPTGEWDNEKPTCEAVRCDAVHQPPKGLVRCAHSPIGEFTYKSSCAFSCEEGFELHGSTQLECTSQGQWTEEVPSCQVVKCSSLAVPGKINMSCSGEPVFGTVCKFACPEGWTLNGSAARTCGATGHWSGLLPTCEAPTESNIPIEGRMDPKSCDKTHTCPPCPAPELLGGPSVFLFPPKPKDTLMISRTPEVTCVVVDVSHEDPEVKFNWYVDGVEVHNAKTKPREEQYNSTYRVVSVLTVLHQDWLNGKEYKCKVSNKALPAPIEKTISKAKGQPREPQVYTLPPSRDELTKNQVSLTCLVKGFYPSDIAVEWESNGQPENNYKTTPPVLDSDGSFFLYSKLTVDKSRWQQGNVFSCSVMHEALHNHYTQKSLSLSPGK

| Kd | SMILES |
| --- | --- |
| 6 nM | CC[C@H]1C[C@@H](C(=O)NCCNC(=O)CCOCCOCCOCCOCCOCCOCCOCCOCCOCCOCCC(=O)NCCNC(=O)[C@@H]2C[C@H](CC)[C@@H](O[C@@H]3O[C@@H](C)[C@@H](O)[C@@H](O)[C@@H]3O)[C@H](O[C@@H]3O[C@H](CO)[C@H](O)[C@H](O[C@@H](CC4CCCCC4)C(=O)O)[C@H]3NC(C)=O)C2)C[C@@H](O[C@@H]2O[C@H](CO)[C@H](O)[C@H](O[C@@H](CC3CCCCC3)C(=O)O)[C@H]2NC(C)=O)[C@@H]1O[C@@H]1O[C@@H](C)[C@@H](O)[C@@H](O)[C@@H]1O [Compound 15] |
| 3.2 nM | CCC1CC(C(=O)NCCNC(=O)c2cn(CCOCCOCCOCCn3cc(C(=O)NCCNC(=O)C4CC(CC)C(OC5OC(C)C(O)C(O)C5O)C(OC5OC(CO)C(O)C(OC(CC6CCCCC6)C(=O)N6CCC6)C5NC(C)=O)C4)nn3)nn2)CC(OC2OC(CO)C(O)C(OC(CC3CCCCC3)C(=O)N3CCC3)C2NC(C)=O)C1OC1OC(C)C(O)C(O)C1O (centres unmarked) [Compound 29] |
| 3.9 nM | CCC1CC(C(=O)NCCNC(=O)c2cn(CCOCCC(=O)NCCCC[C@H](NC(=O)CCOCCn3cc(C(=O)NCCNC(=O)C4CC(CC)[C@@H](O[C@@H]5OC(C)[C@@H](O)[C@H](O)C5O)[C@H](O[C@@H]5O[C@@H](CO)[C@H](O)C(O[C@@H](CC6CCCCC6)C(=O)O)C5NC(C)=O)C4)nn3)C(=O)OCc3ccccc3)nn2)C[C@@H](O[C@@H]2O[C@@H](CO)[C@H](O)C(O[C@@H](CC3CCCCC3)C(=O)O)C2NC(C)=O)[C@@H]1O[C@@H]1OC(C)[C@@H](O)[C@H](O)C1O (some centres unmarked) [Compound 37] |
| 3.3 nM | CC[C@H]1C[C@@H](C(=O)NCCNC(=O)Cn2cc(C(=O)NCCNC(=O)[C@@H]3C[C@H](CC)[C@@H](O[C@@H]4O[C@@H](C)[C@@H](O)[C@@H](O)[C@@H]4O)[C@H](O[C@@H]4O[C@H](CO)[C@H](O)[C@H](O[C@@H](CC5CCCCC5)C(=O)O)[C@H]4NC(C)=O)C3)nn2)C[C@@H](O[C@@H]2O[C@H](CO)[C@H](O)[C@H](O[C@@H](CC3CCCCC3)C(=O)O)[C@H]2NC(C)=O)[C@@H]1O[C@@H]1O[C@@H](C)[C@@H](O)[C@@H](O)[C@@H]1O [Compound 31] |
| 18.3 nM | CC[C@H]1C[C@@H](C(=O)NCCNC(=O)CCOCCOCCOCCOCCOCCOCCOCCOCCOCCOCCC(=O)NCCNC(=O)[C@@H]2C[C@H](CC)[C@@H](O[C@@H]3O[C@@H](C)[C@@H](O)[C@@H](O)[C@@H]3O)[C@H](O[C@@H]3O[C@H](CO)[C@H](O)[C@H](O[C@@H](CC4CCCCC4)C(=O)N(C)C)[C@H]3NC(C)=O)C2)C[C@@H](O[C@@H]2O[C@H](CO)[C@H](O)[C@H](O[C@@H](CC3CCCCC3)C(=O)N(C)C)[C@H]2NC(C)=O)[C@@H]1O[C@@H]1O[C@@H](C)[C@@H](O)[C@@H](O)[C@@H]1O [Compound 21] |
| 0.8 nM | CC[C@H]1C[C@@H](C(=O)NCCNC(=O)CCOCCOCCOCCOCCOCCOCCOCCOCCOCCOCCC(=O)NCCNC(=O)[C@@H]2C[C@H](CC)[C@@H](O[C@@H]3O[C@@H](C)[C@@H](O)[C@@H](O)[C@@H]3O)[C@H](O[C@@H]3O[C@H](CO)[C@H](O)[C@H](O[C@@H](CC4CCCCC4)C(=O)N4CCC4)[C@H]3NC(C)=O)C2)C[C@@H](O[C@@H]2O[C@H](CO)[C@H](O)[C@H](O[C@@H](CC3CCCCC3)C(=O)N3CCC3)[C@H]2NC(C)=O)[C@@H]1O[C@@H]1O[C@@H](C)[C@@H](O)[C@@H](O)[C@@H]1O [Compound 20] |
| 8.8 nM | CC[C@H]1C[C@@H](C(=O)NCCNC(=O)NCCNC(=O)[C@@H]2C[C@H](CC)[C@@H](O[C@@H]3O[C@@H](C)[C@@H](O)[C@@H](O)[C@@H]3O)[C@H](O[C@@H]3O[C@H](CO)[C@H](O)[C@H](O[C@@H](CC4CCCCC4)C(=O)O)[C@H]3NC(C)=O)C2)C[C@@H](O[C@@H]2O[C@H](CO)[C@H](O)[C@H](O[C@@H](CC3CCCCC3)C(=O)O)[C@H]2NC(C)=O)[C@@H]1O[C@@H]1O[C@@H](C)[C@@H](O)[C@@H](O)[C@@H]1O [Compound 32] |
| 6.6 nM | CC[C@H]1C[C@@H](C(=O)NCCNC(=O)CCOCCOCCOCCOCCOCCOCCOCCOCCOCCOCCOCCOCCOCCC(=O)NCCNC(=O)[C@@H]2C[C@H](CC)[C@@H](O[C@@H]3O[C@@H](C)[C@@H](O)[C@@H](O)[C@@H]3O)[C@H](O[C@@H]3O[C@H](CO)[C@H](O)[C@H](O[C@@H](CC4CCCCC4)C(=O)O)[C@H]3NC(C)=O)C2)C[C@@H](O[C@@H]2O[C@H](CO)[C@H](O)[C@H](O[C@@H](CC3CCCCC3)C(=O)O)[C@H]2NC(C)=O)[C@@H]1O[C@@H]1O[C@@H](C)[C@@H](O)[C@@H](O)[C@@H]1O [Compound 14] |
| 10.2 nM | CC[C@H]1CC(C(=O)NCCNC(=O)CCC(=O)NCCNC(=O)[C@@H]2C[C@H](CC)[C@@H](O[C@@H]3O[C@@H](C)[C@@H](O)[C@@H](O)[C@@H]3O)[C@H](O[C@@H]3O[C@H](CO)[C@H](O)[C@H](O[C@@H](CC4CCCCC4)C(=O)O)[C@H]3NC(C)=O)C2)C[C@@H](O[C@@H]2O[C@H](CO)[C@H](O)[C@H](O[C@@H](CC3CCCCC3)C(=O)O)[C@H]2NC(C)=O)[C@@H]1O[C@@H]1O[C@@H](C)[C@@H](O)[C@@H](O)[C@@H]1O (some centres unmarked) [Compound 19] |
| 3.5 nM | CC[C@H]1C[C@@H](C(=O)NCCNC(=O)CCOCCOCCC(=O)NCCNC(=O)[C@@H]2C[C@H](CC)[C@@H](O[C@@H]3O[C@@H](C)[C@@H](O)[C@@H](O)[C@@H]3O)[C@H](O[C@@H]3O[C@H](CO)[C@H](O)[C@H](O[C@@H](CC4CCCCC4)C(=O)O)[C@H]3NC(C)=O)C2)C[C@@H](O[C@@H]2O[C@H](CO)[C@H](O)[C@H](O[C@@H](CC3CCCCC3)C(=O)O)[C@H]2NC(C)=O)[C@@H]1O[C@@H]1O[C@@H](C)[C@@H](O)[C@@H](O)[C@@H]1O [Compound 18] |
| 4.7 nM | CC[C@H]1C[C@@H](C(=O)NCCNC(=O)CCOCCOCCOCCOCCOCCOCCOCCOCCOCCOCCOCCOCCOCCOCCOCCOCCOCCOCCOCCOCCOCCC(=O)NCCNC(=O)[C@@H]2C[C@H](CC)[C@@H](O[C@@H]3O[C@@H](C)[C@@H](O)[C@@H](O)[C@@H]3O)[C@H](O[C@@H]3O[C@H](CO)[C@H](O)[C@H](O[C@@H](CC4CCCCC4)C(=O)O)[C@H]3NC(C)=O)C2)C[C@@H](O[C@@H]2O[C@H](CO)[C@H](O)[C@H](O[C@@H](CC3CCCCC3)C(=O)O)[C@H]2NC(C)=O)[C@@H]1O[C@@H]1O[C@@H](C)[C@@H](O)[C@@H](O)[C@@H]1O [Compound 13] |
| 3.2 nM | CC[C@H]1C[C@@H](C(=O)NCCNC(=O)c2cn(CCOCCOCCn3cc(C(=O)NCCNC(=O)[C@@H]4C[C@H](CC)[C@@H](O[C@@H]5O[C@@H](C)[C@@H](O)[C@@H](O)[C@@H]5O)[C@H](O[C@@H]5O[C@H](CO)[C@H](O)[C@H](O[C@@H](CC6CCCCC6)C(=O)O)[C@H]5NC(C)=O)C4)nn3)nn2)C[C@@H](O[C@@H]2O[C@H](CO)[C@H](O)[C@H](O[C@@H](CC3CCCCC3)C(=O)O)[C@H]2NC(C)=O)[C@@H]1O[C@@H]1O[C@@H](C)[C@@H](O)[C@@H](O)[C@@H]1O [Compound 28] |
| 3 nM | CC[C@H]1C[C@@H](C(=O)NCCNC(=O)CCOCCOCCC(=O)NCCNC(=O)[C@@H]2C[C@H](CC)[C@@H](O[C@@H]3O[C@@H](C)[C@@H](O)[C@@H](O)[C@@H]3O)[C@H](O[C@@H]3O[C@H](CO)[C@H](O)[C@H](O[C@@H](CC4CCCCC4)C(=O)N4CCC4)[C@H]3NC(C)=O)C2)C[C@@H](O[C@@H]2O[C@H](CO)[C@H](O)[C@H](O[C@@H](CC3CCCCC3)C(=O)N3CCC3)[C@H]2NC(C)=O)[C@@H]1O[C@@H]1O[C@@H](C)[C@@H](O)[C@@H](O)[C@@H]1O [Compound 25] |
| 2260 nM | CC[C@H]1C[C@@H](C(=O)OC)C[C@@H](O[C@@H]2O[C@H](CO)[C@H](O)[C@H](O[C@@H](CC3CCCCC3)C(=O)O)[C@H]2NC(C)=O)[C@@H]1O[C@@H]1O[C@@H](C)[C@@H](O)[C@@H](O)[C@@H]1O [Compound 3, reference compound] |
| 2.4 nM | CC[C@H]1C[C@@H](C(=O)NCCNC(=O)CCOCCOCCOCCOCCOCCOCCC(=O)NCCNC(=O)[C@@H]2C[C@H](CC)[C@@H](O[C@@H]3O[C@@H](C)[C@@H](O)[C@@H](O)[C@@H]3O)[C@H](O[C@@H]3O[C@H](CO)[C@H](O)[C@H](O[C@@H](CC4CCCCC4)C(=O)N4CCC4)[C@H]3NC(C)=O)C2)C[C@@H](O[C@@H]2O[C@H](CO)[C@H](O)[C@H](O[C@@H](CC3CCCCC3)C(=O)N3CCC3)[C@H]2NC(C)=O)[C@@H]1O[C@@H]1O[C@@H](C)[C@@H](O)[C@@H](O)[C@@H]1O [Compound 24] |
| 6.4 nM | CCC1CC(C(=O)NCCNC(=O)c2cn(CCOCCC(=O)NCCCC[C@H](NC(=O)CCOCCn3cc(C(=O)NCCNC(=O)C4CC(CC)[C@@H](O[C@@H]5OC(C)[C@@H](O)[C@H](O)C5O)[C@H](O[C@@H]5O[C@@H](CO)[C@H](O)C(O[C@@H](CC6CCCCC6)C(=O)O)C5NC(C)=O)C4)nn3)C(=O)O)nn2)C[C@@H](O[C@@H]2O[C@@H](CO)[C@H](O)C(O[C@@H](CC3CCCCC3)C(=O)O)C2NC(C)=O)[C@@H]1O[C@@H]1OC(C)[C@@H](O)[C@H](O)C1O (some centres unmarked) [Compound 38] |
| 6 nM | CC[C@H]1C[C@@H](C(=O)NCCNC(=O)CCOCCOCCOCCOCCOCCOCCC(=O)NCCNC(=O)[C@@H]2C[C@H](CC)[C@@H](O[C@@H]3O[C@@H](C)[C@@H](O)[C@@H](O)[C@@H]3O)[C@H](O[C@@H]3O[C@H](CO)[C@H](O)[C@H](O[C@@H](CC4CCCCC4)C(=O)O)[C@H]3NC(C)=O)C2)C[C@@H](O[C@@H]2O[C@H](CO)[C@H](O)[C@H](O[C@@H](CC3CCCCC3)C(=O)O)[C@H]2NC(C)=O)[C@@H]1O[C@@H]1O[C@@H](C)[C@@H](O)[C@@H](O)[C@@H]1O [Compound 16] |
